Measurements as given in patent publication US20230013602A1, “NOVEL IMIDAZOPYRAZINE DERIVATIVES” (Hoffmann-La Roche Inc., priority 2018, published 2023).
Counter-ions that a name gives are not always drawn.

system: Acinetobacter baumannii ATCC17961; assay: Antimicrobial susceptibility testing, 90% growth inhibitory concentration (IC90) determination; type: cell-based; details: 90% growth inhibitory concentration, Acinetobacter baumannii ATCC17961, Iso-Sensitest broth, OD 600 nm over 16 h; read-out: ATCC17961 IC90
Description: (§1) The in vitro antimicrobial activity of the compounds was determined according to the following procedure:
(§2) The assay used a 10-points Iso-Sensitest broth medium to measure quantitatively the in vitro activity of the compounds against Acinetobacter baumannii ATCC 17978 and Acinetobacter baumannii ATCC17961.
(§3) Stock compounds in DMSO were serially twofold diluted (e.g. range from 50 to 0.097 μM final concentration) in 384 wells microtiter plates and inoculated with 49 μl the bacterial suspension in Iso-Sensitest medium to have a final cell concentration of ˜5×10^(5) CFU/ml in a final volume/well of 50 ul/well. Microtiter plates were incubated at 35+2° C.
(§4) Bacterial cell growth was determined with the measurement of optical density at X=600 nm each 20 minutes over a time course of 16 h. Growth inhibition was calculated during the logarithmic growth of the bacterial cells with determination of the concentration inhibiting 50% (IC50) and 90% (IC90) of the growth.
(§5) Table 1 provides the 90% growth inhibitory concentrations (IC90) in micromoles per liter of the compounds of present invention obtained against the strain Acinetobacter baumannii ATCC17978 and Acinetobacter baumannii ATCC17961.

SMILES	IC90 [nM]
COc1ccc(-c2cnc3c(Nc4ccc(C(=O)N[C@H]5CC[C@H](NC(=O)[C@@H]6C[C@@H](O)CN6)CC5)c(C)c4)nccn23)c(F)c1F [Example 62, (2S,4R)-N-((1r,4S)-4-(4-((3-(2,3-difluoro-4-methoxyphenyl)imidazo[1,2-a]pyrazin-8-yl)amino)-2-methylbenzamido)cyclohexyI)-4-hydroxypyrrolidine-2-carboxamide]	268
COc1ccc(-c2cnc3c(Nc4ccc(C(=O)N[C@@H]5CCN(C(=O)[C@@H]6C[C@@H](O)CN6)C5)c(C)c4)nccn23)c(F)c1F [Example 63]	55
COc1ccc(-c2cnc3c(Nc4ccc(C(=O)N[C@H]5CCN(C(=O)[C@@H]6C[C@@H](O)CN6)C5)c(C)c4)nccn23)c(F)c1F [Example 64, 4-((3-(2,3-difluoro-4-methoxyphenyl)imidazo[1,2-a]pyrazin-8-yl)amino)-N-((S)-1-((2S,4R)-4-hydroxypyrrolidine-2-carbonyI)pyrrolidin-3-yl)-2-methylbenzamide]	81
COc1ccc(-c2cnc3c(Nc4ccc(C(=O)NC5CN(C(=O)[C@@H]6C[C@@H](O)CN6)C5)c(C)c4)nccn23)c(F)c1F [Example 65, 4-((3-(2,3-difluoro-4-methoxyphenyl)imidazo[1,2-a]pyrazin-8-yl)amino)-N-(1-((2S,4R)-4-hydroxypyrrolidine-2-carbonyl)azetidin-3-yl)-2-methylbenzamide]	47
COc1ccc(-c2cnc3c(Nc4ccc(C(=O)N[C@H]5C[C@@H](NC(=O)[C@@H]6C[C@@H](O)CN6)C5)c(C)c4)nccn23)c(F)c1F [Example 66, (2S,4R)-N-((1s,3R)-3-(4-((3-(2,3-difluoro-4-methoxyphenyl)imidazo[1,2-a]pyrazin-8-yl)amino)-2-methylbenzamido)cyclobutyl)-4-hydroxypyrrolidine-2-carboxamide]	40
COc1ccc(-c2cnc3c(Nc4ccc(C(=O)N[C@H]5C[C@H](NC(=O)[C@@H]6C[C@@H](O)CN6)C5)c(C)c4)nccn23)c(F)c1F [Example 67, (2S,4R)-N-((1r,3 S)-3-(4-((3-(2,3-difluoro-4-methoxyphenyl)imidazo[1,2-a]pyrazin-8-yl)amino)-2-methylbenzamido)cyclobutyl)-4-hydroxypyrrolidine-2-carboxamide]	101
CCc1cc(Nc2nccn3c(-c4ccc(OC)c(F)c4F)cnc23)ccc1C(=O)NC12CC(NC(=O)[C@@H]3C[C@@H](O)CN3)(C1)C2 [Example 70, (2S,4R)-N-(3-(4-((3-(2,3-difluoro-4-methoxyphenyl)imidazo[1,2-a]pyrazin-8-yl)amino)-2-ethylbenzamido)bicyclo[1.1.1]pentan-1-yl)-4-hydroxypyrrolidine-2-carboxamide dihydrochloride]	197
CCc1cc(Nc2nccn3c(-c4ccc(OC)c(F)c4F)cnc23)ccc1C(=O)N[C@@H]1CCC[C@@H]1N [Example 71, N-((1R,2S)-2-aminocyclopentyl)-4-((3-(2,3-difluoro-4-methoxyphenyl)imidazo[1,2-a]pyrazin-8-yl)amino)-2-ethylbenzamide dihydrochloride]	712

same assay, conditions: Acinetobacter baumannii, ATCC17961, 16 h, read-out: ATCC17961 IC90

SMILES	IC90 [nM]
CCc1cc(Nc2nccn3c(-c4ccc(OC)c(F)c4F)cnc23)ccc1C(=O)N[C@H]1[C@@H]2CNC[C@@H]21 [Example 72, rac-N-((1R,5 S,6s)-3-azabicyclo[3.1,0]hexan-6-yI)-4-((3-(2,3-difluoro-4-methoxyphenyl)imidazo[1,2-a]pyrazin-8-yl)amino)-2-ethylbenzamide hydrochloride]	295

system: Acinetobacter baumannii ATCC 17978; assay: as above; type: cell-based; details: Acinetobacter baumannii ATCC17978, Iso-Sensitest broth, OD 600 nm over 16 h
Description: as §1, §2, §3, §4, §5

SMILES	IC90 [nM]
COc1ccc(-c2cnc3c(Nc4ccc(C(=O)NC5CCN(C)CC5)c(C)c4)nccn23)cc1 [Example 1, 4-((3-(4-methoxyphenyl)imidazo[1,2-a]pyrazin-8-yl)amino)-2-methyl-N-(1-methylpiperidin-4-yl)benzamide]	2200
Cc1cc(Nc2nccn3c(-c4ccc(OC(F)F)cc4)cnc23)ccc1C(=O)NC1CN2CCC1CC2 (centres unmarked) [Example 2, 4-((3-(4-(difluoromethoxy)phenyl)imidazo[1,2-a]pyrazin-8-yl)amino)-2-methyl-N-(quinuclidin-3-yl)benzamide]	3200
CCc1cc(Nc2nccn3c(-c4ccc(OC)c(F)c4F)cnc23)ccc1C(=O)N[C@@H]1CCNC1 [Example 3, (R)-4-((3-(2,3-difluoro-4-methoxyphenyl)imidazo[1,2-a]pyrazin-8-yl)amino)-2-ethyl-N-(pyrrolidin-3-yl)benzamide hydrochloride]	260
COc1ccc(-c2cnc3c(Nc4ccc(C(=O)NC5COC(CN)OC5)c(C)c4)nccn23)cc1 (centres unmarked) [Example 7, N-(2-(aminomethyl)-1,3-dioxan-5-yl)-4-((3-(4-methoxyphenyl)imidazo [1,2-a]pyrazin-8-yl)amino)-2-methylbenzamide]	540
COc1ccc(-c2cnc3c(Nc4ccc(C(=O)N(C)C5CCN(C)CC5)c(C)c4)nccn23)cc1 [Example 15, 4-[[3-(4-methoxyphenyl)imidazo[1,2-a]pyrazin-8-yl]amino]-N,2-dimethyl-N-(1-methylpiperidin-4-yl)benzamide]	5300
COc1ccc(-c2cnc3c(Nc4ccc(C(=O)N(C)C5CCN(C)CC5)cc4)nccn23)cc1 [Example 16, 4-[[3-(4-methoxyphenyl)imidazo[1,2-a]pyrazin-8-yl]amino]-N-methyl-N-(1-methylpiperidin-4-yl)benzamide]	5900
COc1ccc(-c2cnc3c(Nc4ccc(C(=O)N(C)[C@@H]5CNC[C@H]5O)c(C)c4)nccn23)cc1F [Example 17, 4-[[3-(3-fluoro-4-methoxyphenyl)imidazo[1,2-a]pyrazin-8-yl]amino]-N-[(3R,4R)-4-hydroxypyrrolidin-3-yl]-N,2-dimethylbenzamide;hydrochloride]	2600
COc1ccc(-c2cnc3c(Nc4ccc(C(=O)N(C)C5CCNCC5)c(Cl)c4)nccn23)cc1F [Example 20, 2-chloro-4-[[3-(3-fluoro-4-methoxyphenyl)imidazo[1,2-a]pyrazin-8-yl]amino]-N-methyl-N-piperidin-4-ylbenzamide;hydrochloride]	820
COc1ccc(-c2cnc3c(Nc4ccc(C(=O)N(C)C5CCNCC5)c(C)c4)nccn23)cc1F [Example 21, 4-[[3-(3-fluoro-4-methoxyphenyl)imidazo[1,2-a]pyrazin-8-yl]amino]-N, 2-dimethyl-N-piperidin-4-ylbenzamide;hydrochloride]	1100
Cc1cc(Nc2nccn3c(-c4ccc(OC(F)F)c(F)c4)cnc23)ccc1C(=O)N(C)C1CCNCC1 [Example 22, 4-[[3-[4-(difluoromethoxy)-3-fluorophenyl]imidazo[1,2-a]pyrazin-8-yI]amino]-N,2-dimethyl-N-piperidin-4-ylbenzamide;hydrochloride]	1300
Cc1cc(Nc2nccn3c(-c4ccc(OC(F)F)cc4)cnc23)ccc1C(=O)N[C@H]1[C@@H](O)[C@H](O)[C@@H](CO)O[C@@H]1O [Example 23, 4-[[3-[4-(difluoromethoxy)phenyl]imidazo[1,2-a]pyrazin-8-yl]amino]-2-methyl-N-[(2S,3S,4R,5S,6R)-2,4,5-trihydroxy-6-(hydroxymethyl)oxan-3-yl]benzamide]	8000
COc1ccc(-c2cnc3c(Nc4ccc(C(=O)NC5CCN(C6CCS(=O)(=O)CC6)CC5)c(C)c4)nccn23)cc1F [Example 24, N-[1-(1,1-dioxothian-4-yl)piperidin-4-yl]-4-[[3-(3-fluoro-4-methoxyphenyl)imidazo[1,2-a]pyrazin-8-yl]amino]-2-methylbenzamide]	600
COc1ccc(-c2cnc3c(Nc4ccc(C(=O)Nc5ccc(C(=O)O)cc5)c(C)c4)nccn23)cc1F [Example 25, 4-[[4-[[3-(3-fluoro-4-methoxyphenyl)imidazo[1,2-a]pyrazin-8-yl]amino]-2-methylbenzoyl]amino] benzoic acid]	1500
COc1ccc(-c2cnc3c(Nc4ccc(C(=O)N[C@H]5CCNC[C@H]5F)c(C)c4)nccn23)cc1F [Example 26, 4-[[3-(3-fluoro-4-methoxyphenyl)imidazo[1,2-a]pyrazin-8-yl]amino]-N-[(3R,4S)-3-fluoropiperidin-4-yl]-2-methylbenzamide;2,2,2-trifluoroacetic acid]	2700
CCc1cc(Nc2nccn3c(-c4ccc(OC)c(F)c4F)cnc23)ccc1C(=O)NC1(CO)COC1 [Example 27, 4-[[3-(2,3-difluoro-4-methoxyphenyl)imidazo[1,2-a]pyrazin-8-yl]amino]-2-ethyl-N-[3-(hydroxymethyl)oxetan-3-yl]benzamide]	180
CCc1cc(Nc2nccn3c(-c4ccc(OC)c(F)c4F)cnc23)ccc1C(=O)N[C@H]1CCNC1 [Example 28, 4-[[3-(2,3-difluoro-4-methoxyphenyl)imidazo[1,2-a]pyrazin-8-yl]amino]-2-ethyl-N-[(3S)-pyrrolidin-3-yl]benzamide;hydrochloride]	370
CCc1cc(Nc2nccn3c(-c4ccc(OC(F)F)c(F)c4F)cnc23)ccc1C(=O)NC1(CN)CC1 [Example 29, N-[1-(aminomethyl)cyclopropyl]-4-[[3-[4-(difluoromethoxy)-2,3-difluorophenyl]imidazo[1,2-a]pyrazin-8-yl]amino]-2-ethylbenzamide;hydrochloride]	710
